Test results published in patent US20250340574A1, “MODULATORS OF CYSTIC FIBROSIS TRANSMEMBRANE CONDUCTANCE REGULATOR” (Vertex Pharmaceuticals Incorporated, priority 2022, published 2025).
Like-named read-outs stand apart in the source and are kept apart here.

Experiments:
[1] = amide bond, 13-membered ring, CDMT/NMM, DMF
[2] = target: T1, CFTR (F508del/MF-HBE cells) (Homo sapiens, UniProt P13569, DEL508-508); test: Ussing chamber assay of CFTR-mediated short-circuit currents, Assay A (0.1 μM to 25 μM, 6 concentrations); assay type: cell-based; details: with 33 nM potentiator and 18 μM Tezacaftor, 20% human serum; for Emax: 18-24 hours, read-out: A Max activity (%)
T1 construct: human bronchial epithelial (HBE) cells derived from CF subjects heterozygous for F508del and a minimal function CFTR mutation (F508del/MF-HBE); endogenous in cells; host or cells: Primary human bronchial epithelial cells from CF subjects (F508del/MF genotype), differentiated at an air-liquid interface
How it was run: (§1)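 F508del/MF-HBE cells grown at air-liquid interface were incubated 18-24 h at 37 °C in 20% human serum with correctors plus 18 μM tezacaftor and a fixed partner compound (33 nM for concentration series, 44 nM at 1 μM). ISC was read at 0 mV after 20 μM forskolin, minus the post-inhibitor current.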

[3] = target: T1, CFTR (F508del/MF-HBE cells); test: Ussing chamber assay of CFTR-mediated short-circuit currents, Assay B (0.00001 μM to 25 μM, 12 concentrations); assay type: cell-based; details: with 33 nM potentiator and 18 μM Tezacaftor, 20% human serum; for Emax: 18-24 hours, read-out: B Max activity (%)
How it was run: as §1

[4] = target: T1, CFTR (F508del/MF-HBE cells); test: Ussing chamber assay of CFTR-mediated short-circuit currents, Assay D (single concentration of 1 μM); assay type: cell-based; details: with 44 nM potentiator and 18 μM Tezacaftor, 18-24 hours, 20% human serum
How it was run: as §1

[5] = target: T1, CFTR (F508del/MF-HBE cells); test: Ussing chamber assay of CFTR-mediated short-circuit currents, Assay C (0.026 μM to 25 μM, 6 concentrations); assay type: cell-based; details: with 33 nM potentiator and 18 μM Tezacaftor, 20% human serum
How it was run: as §1

T1 sequence (P13569 with tags, fused parts or gaps DEL508-508): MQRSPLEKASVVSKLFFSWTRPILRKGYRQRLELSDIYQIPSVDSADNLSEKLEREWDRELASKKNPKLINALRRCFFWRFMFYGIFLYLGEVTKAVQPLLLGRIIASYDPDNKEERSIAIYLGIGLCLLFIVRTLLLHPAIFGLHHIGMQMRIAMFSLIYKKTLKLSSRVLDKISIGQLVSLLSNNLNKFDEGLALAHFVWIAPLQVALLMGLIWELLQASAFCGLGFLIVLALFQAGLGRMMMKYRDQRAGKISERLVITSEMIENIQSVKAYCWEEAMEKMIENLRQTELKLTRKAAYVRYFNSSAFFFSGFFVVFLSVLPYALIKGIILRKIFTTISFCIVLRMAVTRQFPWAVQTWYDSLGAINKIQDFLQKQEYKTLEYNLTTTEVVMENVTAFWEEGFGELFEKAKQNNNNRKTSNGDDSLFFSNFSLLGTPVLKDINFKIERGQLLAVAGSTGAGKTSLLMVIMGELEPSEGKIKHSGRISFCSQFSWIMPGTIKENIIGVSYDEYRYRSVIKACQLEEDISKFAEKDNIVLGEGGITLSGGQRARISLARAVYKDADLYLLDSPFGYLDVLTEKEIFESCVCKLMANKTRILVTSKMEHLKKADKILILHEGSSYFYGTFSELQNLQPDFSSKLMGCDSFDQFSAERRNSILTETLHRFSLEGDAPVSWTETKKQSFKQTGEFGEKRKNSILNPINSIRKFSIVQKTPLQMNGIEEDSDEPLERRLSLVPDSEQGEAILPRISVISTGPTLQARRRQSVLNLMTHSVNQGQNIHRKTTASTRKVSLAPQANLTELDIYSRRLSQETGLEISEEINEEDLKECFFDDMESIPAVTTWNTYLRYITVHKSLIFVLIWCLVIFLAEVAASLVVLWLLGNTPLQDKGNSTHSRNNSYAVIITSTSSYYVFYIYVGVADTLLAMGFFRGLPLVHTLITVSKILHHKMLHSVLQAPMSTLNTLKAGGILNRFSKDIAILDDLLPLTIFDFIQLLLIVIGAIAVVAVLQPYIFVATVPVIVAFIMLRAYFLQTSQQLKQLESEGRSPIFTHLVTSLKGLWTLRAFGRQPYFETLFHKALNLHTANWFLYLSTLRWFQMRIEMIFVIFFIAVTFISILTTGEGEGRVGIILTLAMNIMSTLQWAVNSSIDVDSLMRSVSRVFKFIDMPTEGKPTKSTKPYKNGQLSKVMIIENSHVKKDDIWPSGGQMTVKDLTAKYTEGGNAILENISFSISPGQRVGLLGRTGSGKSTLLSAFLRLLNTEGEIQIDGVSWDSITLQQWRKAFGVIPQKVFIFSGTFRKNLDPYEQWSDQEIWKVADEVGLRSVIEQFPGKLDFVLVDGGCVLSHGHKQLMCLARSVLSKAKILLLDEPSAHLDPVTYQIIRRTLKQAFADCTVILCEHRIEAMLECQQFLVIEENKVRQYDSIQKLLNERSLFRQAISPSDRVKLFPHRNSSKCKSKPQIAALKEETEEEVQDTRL

| SMILES | Emax [2] | EC50 [2] | Emax [3] | EC50 [3] | further results |
| --- | --- | --- | --- | --- | --- |
| Cc1cccc(C)c1-c1cc2nc(n1)NS(=N)(=O)c1cccc(c1)C(=O)N(Cc1cnc3oc(C4CC4)cc3n1)[C@H](CC(C)(C)C)CO2 (stereo partly drawn) |  |  |  |  | ring closure, isolated yield (from 3-[[[4-[(2R)-2-[(6-Cyclopropylfuro[2,3-b]pyrazin-2-yl)methylamino]-4,4-dimethyl-pentoxy]-6-(2,6-dimethylphenyl)pyrimidin-2-yl]amino]sulfonimidoyl]benzoic acid (hydrochloride salt) (isomer B), amide bond, 13-membered ring, CDMT/NMM, DMF, 10.4 mM): 8% |
| Cc1cccc(C)c1-c1cc2nc(n1)NS(=O)(=O)c1cccc(c1)C(=O)N(Cc1cnc3oc(C4CC4)cc3n1)C(C1(C(C)C)CC1)CO2 (stereo not drawn) |  |  |  |  | ring closure, isolated yield (from Cc1cccc(C)c1-c1cc(OCC(NCc2cnc3oc(C4CC4)cc3n2)C2(C(C)C)CC2)nc(NS(=O)(=O)c2cccc(C(=O)O)c2)n1, amide bond, 13-membered ring, CDMT/NMM, DMF, 25.0 °C): 41% |
| Cc1cccc(C)c1-c1cc2nc(n1)NS(=O)(=O)c1cccc(c1)C(=O)N(Cc1cnc3oc(C4CC4)cc3n1)C(CC1CC(C)(C)C1)CO2 (stereo not drawn) |  |  |  |  | ring closure, isolated yield (from Cc1cccc(C)c1-c1cc(OCC(CC2CC(C)(C)C2)NCc2cnc3oc(C4CC4)cc3n2)nc(NS(=O)(=O)c2cccc(C(=O)O)c2)n1, amide bond, 13-membered ring, CDMT/NMM, DMF, 15.9 mM, 25.0 h): 75% |
| Cc1cccc(C)c1-c1cc2nc(n1)NS(=O)(=O)c1cccc(c1)C(=O)N(Cc1cncc(Cl)n1)[C@H](CCC(C)(C)C)CO2 |  |  |  |  | ring closure, isolated yield (from Cc1cccc(C)c1-c1cc(OC[C@@H](CCC(C)(C)C)NCc2cncc(Cl)n2)nc(NS(=O)(=O)c2cccc(C(=O)O)c2)n1, amide bond, 13-membered ring, CDMT/NMM, DMF, 15.0 mM, 18.0 h): 48% |
| CC1(C)CCC=CC[C@](OCc2ccccc2)(C(F)(F)F)C2=NN=C(O2)c2nc(c(C(F)(F)F)cc2[N+](=O)[O-])N1 (mixture of isomers) |  |  |  |  | ring closure, isolated yield (from C=CCCC(C)(C)Nc1nc(-c2nnc([C@@](CC=C)(OCc3ccccc3)C(F)(F)F)o2)c([N+](=O)[O-])cc1C(F)(F)F, rcm bond, 14-membered ring, Zhan catalyst-1B (20 mol%), DCE, 9.26 mM, 72.0 °C, 2.47 h): 40% |
| Cc1cccc(C)c1-c1cc2nc(n1)NS(=O)(=O)c1cccc(c1)C(=O)N(Cc1cnc3oc(C4CC4)cc3n1)[C@H](COC(C)C)CO2 [Compound I-23, (11R)-12-[(6-cyclopropylfuro[2,3-b]pyrazin-2-yl)methyl]-6-(2,6-dimethylphenyl)-11-(isopropoxymethyl)-2,2-dioxo-9-oxa-2λ^6-thia-3,5,12,19-tetrazatricyclo[12.3.1.14,8]nonadeca-1(18),4(19),5,7,14,16-hexaen-13-one] | > 60% | < 1000 nM | > 60% | 1000 to 3000 nM | ring closure, yield after HPLC ([1]; from Cc1cccc(C)c1-c1cc(OC[C@@H](COC(C)C)NCc2cnc3oc(C4CC4)cc3n2)nc(NS(=O)(=O)c2cccc(C(=O)O)c2)n1, 40.6 mM, 14.0 h): 52% |
| Cc1cccc(C)c1-c1cc2nc(n1)NS(=O)(=O)c1cccc(c1)C(=O)N(Cc1cnc3oc(C4CC4)cc3n1)[C@H](CC13CC(C1)C3)CO2 [Compound I-52, (11R)-11-(1-bicyclo[1.1.1]pentanylmethyl)-12-[(6-cyclopropylfuro[2,3-b]pyrazin-2-yl)methyl]-6-(2,6-dimethylphenyl)-2,2-dioxo-9-oxa-2λ^6-thia-3,5,12,19-tetrazatricyclo[12.3.1.14,8]nonadeca-1(18),4(19),5,7,14,16-hexaen-13-one] | > 60% | < 1000 nM | > 60% | 1000 to 3000 nM | ring closure, yield after HPLC ([1]; from Cc1cccc(C)c1-c1cc(OC[C@@H](CC23CC(C2)C3)NCc2cnc3oc(C4CC4)cc3n2)nc(NS(=O)(=O)c2cccc(C(=O)O)c2)n1, 12.4 mM, 18.0 h): 66% |
| Cc1cccc(C)c1-c1cc2nc(n1)NS(=O)(=O)c1cccc(c1)C(=O)N(Cc1cnc3nc(C(C)C)n(C)c3n1)[C@H](CC13CC(C1)C3)CO2 [Compound I-88, (11R)-11-(1-bicyclo[1.1.1]pentanylmethyl)-6-(2,6-dimethylphenyl)-12-[(2-isopropyl-3-methyl-imidazo[4,5-b]pyrazin-5-yl)methyl]-2,2-dioxo-9-oxa-2λ^6-thia-3,5,12,19-tetrazatricyclo[12.3.1.14,8]nonadeca-1(18),4(19),5,7,14,16-hexaen-13-one] | > 60% | < 1000 nM | > 60% | < 1000 nM | ring closure, yield after HPLC ([1]; from Cc1cccc(C)c1-c1cc(OC[C@@H](CC23CC(C2)C3)NCc2cnc3nc(C(C)C)n(C)c3n2)nc(NS(=O)(=O)c2cccc(C(=O)O)c2)n1, 11.0 mM, 16.5 h): 66% |
| Cc1cccc(C)c1-c1cc2nc(n1)NS(=O)(=O)c1cccc(c1)C(=O)N(Cc1cnc3oc(C4(C)CC4)cc3n1)[C@H](CC1(C)CC1)CO2 [Compound I-96, (11R)-6-(2,6-dimethylphenyl)-12-[[6-(1-methylcyclopropyl)furo[2,3-b]pyrazin-2-yl]methyl]-11-[(1-methylcyclopropyl)methyl]-2,2-dioxo-9-oxa-2λ^6-thia-3,5,12,19-tetrazatricyclo[12.3.1.14,8]nonadeca-1(18),4(19),5,7,14,16-hexaen-13-one] | > 60% | < 1000 nM | > 60% | 1000 to 3000 nM | ring closure, yield after HPLC ([1]; from Cc1cccc(C)c1-c1cc(OC[C@@H](CC2(C)CC2)NCc2cnc3oc(C4(C)CC4)cc3n2)nc(NS(=O)(=O)c2cccc(C(=O)O)c2)n1, 50.0 mM, 6.0 h): 63% |
| Cc1cccc(C)c1-c1cc2nc(n1)NS(=O)(=O)c1cccc(c1)C(=O)N(Cc1cnc3oc(C(C)(C)C)cc3n1)[C@H](CC1(C)CC1)CO2 [Compound I-98, (11R)-12-[(6-tert-butylfuro[2,3-b]pyrazin-2-yl)methyl]-6-(2,6-dimethylphenyl)-11-[(1-methylcyclopropyl)methyl]-2,2-dioxo-9-oxa-2λ^6-thia-3,5,12,19-tetrazatricyclo[12.3.1.14,8]nonadeca-1(18),4(19),5,7,14,16-hexaen-13-one] | > 60% | < 1000 nM | > 60% | 1000 to 3000 nM | ring closure, yield after HPLC ([1]; from Cc1cccc(C)c1-c1cc(OC[C@@H](CC2(C)CC2)NCc2cnc3oc(C(C)(C)C)cc3n2)nc(NS(=O)(=O)c2cccc(C(=O)O)c2)n1, 44.5 mM, 16.0 h): 55% |
| Cc1cccc(C)c1-c1cc2nc(n1)NS(=O)(=O)c1cccc(c1)C(=O)N(Cc1cnc3oc(C(C)(C)C)cc3n1)[C@H](CC13CC(C1)C3)CO2 [Compound I-99, (11R)-11-(1-bicyclo[1.1.1]pentanylmethyl)-12-[(6-tert-butylfuro[2,3-b]pyrazin-2-yl)methyl]-6-(2,6-dimethylphenyl)-2,2-dioxo-9-oxa-2λ^6-thia-3,5,12,19-tetrazatricyclo[12.3.1.14,8]nonadeca-1(18),4(19),5,7,14,16-hexaen-13-one] | > 60% | < 1000 nM | > 60% | < 1000 nM | ring closure, yield after HPLC ([1]; from Cc1cccc(C)c1-c1cc(OC[C@@H](CC23CC(C2)C3)NCc2cnc3oc(C(C)(C)C)cc3n2)nc(NS(=O)(=O)c2cccc(C(=O)O)c2)n1, 29.9 mM, 16.0 h): 54%; D activity at 1 μM (%) [4]: +++ (+++ is >60%) |
| Cc1cccc(C)c1-c1cc2nc(n1)NS(=O)(=O)c1cccc(c1)C(=O)N(Cc1cnc3oc(C4CCC4)cc3n1)[C@H](CC13CC(C1)C3)CO2 [Compound I-134, (11R)-11-(1-Bicyclo[1.1.1]pentanylmethyl)-12-[(6-cyclobutylfuro[2,3-b]pyrazin-2-yl)methyl]-6-(2,6-dimethylphenyl)-2,2-dioxo-9-oxa-2λ^6-thia-3,5,12,19-tetrazatricyclo[12.3.1.14,8]nonadeca-1(18),4(19),5,7,14,16-hexaen-13-one] |  |  | > 60% | < 1000 nM | ring closure, yield after HPLC ([1]; from Cc1cccc(C)c1-c1cc(OC[C@@H](CC23CC(C2)C3)NCc2cnc3oc(C4CCC4)cc3n2)nc(NS(=O)(=O)c2cccc(C(=O)O)c2)n1, 28.4 mM, 2.0 h): 91% |
| Cc1cccc(C)c1-c1nc2nc(c1C)OC[C@@H](CC(C)(C)C)N(Cc1cnc3cc(C(C)(C)C)n(C)c3n1)C(=O)c1cccc(c1)S(=O)(=O)N2 [Compound I-188, (11R)-12-[(6-tert-Butyl-5-methyl-pyrrolo[2,3-b]pyrazin-3-yl)methyl]-6-(2,6-dimethylphenyl)-11-(2,2-dimethylpropyl)-7-methyl-2,2-dioxo-9-oxa-2λ^6-thia-3,5,12,19-tetrazatricyclo[12.3.1.14,8]nonadeca-1(18),4(19),5,7,14,16-hexaen-13-one] |  |  | > 60% | < 1000 nM | ring closure, yield after HPLC ([1]; from Cc1cccc(C)c1-c1nc(NS(=O)(=O)c2cccc(C(=O)O)c2)nc(OC[C@@H](CC(C)(C)C)NCc2cnc3cc(C(C)(C)C)n(C)c3n2)c1C, 19.8 mM, 4.0 h): 57%; Emax ([5]; 18-24 hours, read-out: C Max activity (%)): > 60%; EC50 [5]: < 1000 nM; D activity at 1 μM (%) [4]: +++ (+++ is >60%) |
